Results reported in US10045990B2, “ERBB4 inhibitors and methods of use thereof” (Arizona Board of Regents on behalf of Arizona State …, priority 2015, dated 2018).

System: protein-tyrosine kinases from the human genome
Settings: compared to the control slides (FIG. 9)
Procedure: NAPPA kinase microarrays we generated with virtually all protein-tyrosine kinases from the human genome. The coding sequence for each tyrosine kinase was clone into an expression plasmid and immobilized on the microarray surface, with one protein kinase per feature. After the microarray was expressed, any phosphorylation that occurred during the expression step was removed by a treatment with lambda phosphatase.
Unphosphorylated microarrays were then incubated with a kinase buffer (25 mM Tris-HCl (pH 7.5), 5 mM beta-glycerophosphate, 2 mM dithiothreitol (DTT), 0.1 mM Na3VO4, 10 mM MgCl2) supplemented with […] and/or kinase inhibitors (concentration ranging from 0-10 uM). The kinase autophosphorylation activity was measured through the levels of phosphorylation present in each feature and was detected by phospho-tyrosine antibody. […] Staurosporine is a pan kinase inhibitor used as a control.

CN[C@@H]1C[C@H]2O[C@@](C)([C@@H]1OC)n1c3ccccc3c3c4c(c5c6ccccc6n2c5c31)C(=O)NC4 [Staurosporine]
overall phosphorylation signal of the microarrays: drastically reduce
